Source: US11679107B2 (Eisai R&D Management Co., Ltd., priority 2018, dated 2023)
Like-named read-outs stand apart in the source and are kept apart here.

Tests used:
[1] = system: Ad2 variant pre-mRNAs spliced in HeLa S3 nuclear extracts; assay: In vitro splicing assay (IVS), RT-qPCR of spliced product; format: biochemical; settings: for IC50: geometric mean; for Ratio Ad2.1/2.2: ratio of IVS IC50 Ad2.1 to Ad2.2
In short: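 Ad2 variant pre-mRNA (2 ng) with FTZΔi control RNA in HeLa S3 nuclear extract (8 μg) was pre-incubated with compound or DMSO for 15 min at 30 °C. Splicing ran 90 min at 30 °C after adding 0.5 mM ATP, creatine phosphate and MgCl2. Spliced product was quantified by TaqMan RT-qPCR, normalized to DMSO, and curve-fitted.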

SF3b complexes = target: T1, SF3b complexes (Homo sapiens, UniProt O75533+Q7RTV0); assay: Scintillation proximity assay (SPA) with [3H]-labelled pladienolide probe; format: binding; settings: SF3B1 (WT); geometric mean; read-out: SPA-ATS GMean IC50 (nM) SF3B1 (WT)
T1 construct: endogenous in cells; host or cells: Nuclear extracts; A HeLa S3 extract preparation is described for the in vitro splicing assay
In short: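 SF3b complexes captured from nuclear extracts on anti-SF3B1 antibody SPA beads; test compounds pre-incubated 30 min before 2.5 nM [3H]-pladienolide probe added, then 30 min incubation. Bound probe read by scintillation; values from non-linear regression of concentration–response curves.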

[2] = system: NCI-H1568 cells (high MCL1); assay: Cell proliferation and viability, CellTiter-Glo, 72 hours; format: cell-based; settings: for GI50: geometric mean
In short: (§1)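 Cells grown in RPMI-1640 with 10% FBS (Panc 05.04 with added insulin, 15% FBS total) were exposed to an 11-point half-log dilution, typically 10 μM–100 pM, at 0.1% DMSO for 72 h at 37 °C. ATP content was read by CellTiter-Glo luminescence. Percent inhibition was set against a time-zero plate and DMSO vehicle wells, on a −100% (cidal) to 100% (uninhibited growth) scale.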

[3] = system: Panc 05.04 cells (SF3b K700E mutant); assay: as above; format: cell-based; settings: for GI50: geometric mean
In short: as §1

[4] = Ad2.1 pre-mRNA substrate, read-out: qPCR-IVS-ATS GMean IC50 (nM) Ad2.1
[5] = Ad2.2 pre-mRNA substrate, read-out: qPCR-IVS-ATS GMean IC50 (nM) Ad2.2
[6] = NCI-H1568, read-out: CTGlo-ATS GMean GI50 (nM) 72 h NCIH1568.1, NCIH1568.1 cells, 72 h
[7] = NCIH1568.1 cells, 72 h, −100% cidal, 0% static, 100% maximal growth
[8] = PANC0504.1 cells, 72 h, −100% cidal, 0% static, 100% maximal growth
[9] = Panc 05.04, read-out: CTGlo-ATS GMean GI50 (nM) 72 h PANC0504.1, PANC0504.1 cells, 72 h
[10] = 72 h, NCIH1568.1, -100% = cidal, 0% = static, 100% = uninhibited growth
[11] = 72 h, PANC0504.1, -100% = cidal, 0% = static, 100% = uninhibited growth
[12] = NCI-H1568, 72 h, read-out: CTGlo-ATS GMean GI50 (nM) 72 h NCIH1568.1, 72 h, NCIH1568.1
[13] = Panc 05.04, 72 h, read-out: CTGlo-ATS GMean GI50 (nM) 72 h PANC0504.1, 72 h, PANC0504.1
[14] = NCI-H1568, 72 h, read-out: CTGlo-ATS GMean GI50 (nM) 72 h NCIH1568.1, NCIH1568.1 cells, 72 h
[15] = Panc 05.04, 72 h, read-out: CTGlo-ATS GMean GI50 (nM) 72 h PANC0504.1, PANC0504.1 cells, 72 h

Compound | IC50 [1, 4] [nM] | IC50 [1, 5] [nM] | IC50 (SF3b complexes) [nM] | GI50 [2, 6] [nM] | CTGlo-ATS Mean MinResponse % 72 h NCIH1568.1 [2, 7] [%] | CTGlo-ATS Mean MinResponse % 72 h PANC0504.1 [3, 8] [%] | GI50 [3, 9] [nM] | Ratio Ad2.1/2.2 [1] | CTGlo-ATS Mean MinResponse % 72 h NCIH1568.1 [2, 10] [%] | GI50 ([2]; NCI-H1568, read-out: CTGlo-ATS GMean GI50 (nM) 72 h NCIH1568.1, 72 h, NCIH1568.1) [nM] | CTGlo-ATS Mean MinResponse % 72 h PANC0504.1 [3, 11] [%] | GI50 ([3]; Panc 05.04, read-out: CTGlo-ATS GMean GI50 (nM) 72 h PANC0504.1, 72 h, PANC0504.1) [nM] | GI50 [2, 12] [nM] | GI50 [3, 13] [nM] | GI50 [2, 14] [nM] | GI50 [3, 15] [nM]
C/C(=C\c1cc(F)cc(N2CCN(C(=O)C3CC3)CC2)c1)[C@H]1OC(=O)C[C@H](O)CC[C@H](C)[C@@H](OC(=O)N2CCN(C)CC2)/C=C/[C@@H]1C [Compound 109] | 26.5 | 14 | 2.85 | 2 | −84.780 | −84.673 | 3.55 |  |  |  |  |  |  |  |  | 
C/C(=C\c1cc(F)cc(N2CCN(CCN3CCOCC3)C2=O)c1)[C@H]1OC(=O)C[C@H](O)CC[C@H](C)[C@@H](OC(=O)N2CCN(C)CC2)/C=C/[C@@H]1C [Compound 67] | 22.7 | 20.2 | 1.95 | 8.6 | −75.182 | −87.661 | 7.27 |  |  |  |  |  |  |  |  | 
C/C(=C\c1cccc(S(=O)(=O)NC(C)(C)C)c1)[C@H]1OC(=O)C[C@H](O)CC[C@H](C)[C@@H](OC(=O)N2CCN(C)CC2)/C=C/[C@@H]1C [Compound 208, [(2S,3S,4E,6R,7S,10R)-2-[(E)-1-[3-(tert-butylsulfamoyl)phenyl]prop-1-en-2-yl]-10-hydroxy-3,7-dimethyl-12-oxo-1-oxacyclododec-4-en-6-yl] 4-methylpiperazine-1-carboxylate] | 1380 | 25.1 | 1.77 |  |  |  |  | 54.813 | −47.371 | 11.6 | −94.342 | 9.27 |  |  |  | 
C/C(=C\c1cccc(N(C)C)c1)[C@H]1OC(=O)C[C@H](O)CC[C@H](C)[C@@H](OC(=O)N2CCN(C)CC2)/C=C/[C@@H]1C [Compound 265] | > 25000 | 71.6 | 5.3 |  |  |  |  | 349.0 | −9.0 |  | 25.1 |  | 47.5 | 36.7 |  | 
C/C(=C\c1cc(F)cc(N2CCOCC2)c1)[C@H]1OC(=O)C[C@H](O)CC[C@H](C)[C@@H](OC(=O)N2CCCC(N(C)C)C2)/C=C/[C@@H]1C (some centres unmarked) [Compound 40] | 55.9 | 28.1 | 3.98 | 13.3 | −72.259 | −82.881 | 7.75 |  |  |  |  |  |  |  |  | 
C/C(=C\c1cccc(N2CCN(C)CC2)c1)[C@H]1OC(=O)C[C@H](O)CC[C@H](C)[C@@H](OC(=O)N2CCN(C)CC2)/C=C/[C@@H]1C [Compound 2] | 29.3 | 24.8 | 14.7 | 40.6 | −70.665 | −76.626 | 30.3 |  |  |  |  |  |  |  |  | 
C/C(=C\c1cc(F)cc(N2CC[C@@H](O)C2)c1)[C@H]1OC(=O)C[C@H](O)CC[C@H](C)[C@@H](OC(=O)N2CCN(C)CC2)/C=C/[C@@H]1C [Compound 34] | 56.5 | 26.9 | 3.18 |  | −55.438 | −85.656 |  |  |  |  |  |  |  |  | 9.46 | 14
C/C(=C\c1cccc(N2CCNCC2)c1)[C@H]1OC(=O)C[C@H](O)CC[C@H](C)[C@@H](OC(=O)N2CCN(C)CC2)/C=C/[C@@H]1C [Compound 1] | 28.9 | 18.7 | 19.8 | 61.2 | −71.582 | −79.550 | 54.8 |  |  |  |  |  |  |  |  | 
C/C(=C\c1cc(F)cc(N(C)C2CCOCC2)c1)[C@H]1OC(=O)C[C@H](O)CC[C@H](C)[C@@H](OC(=O)N2CCN(C)CC2)/C=C/[C@@H]1C [Compound 168] | 27.6 | 16.5 | 3.05 | 5.96 | −75.760 | −86.930 | 10.4 |  |  |  |  |  |  |  |  | 
C/C(=C\c1cc(F)cc(N2CCC3(COC3)C2)c1)[C@H]1OC(=O)C[C@H](O)CC[C@H](C)[C@@H](OC(=O)N2CCN(C)CC2)/C=C/[C@@H]1C [Compound 33] | 28.4 | 27.6 | 5.58 | 12 | −73.122 | −77.334 | 10 |  |  |  |  |  |  |  |  | 
C/C(=C\c1cc(F)cc(N2CCOCC2)c1)[C@H]1OC(=O)C[C@H](O)CC[C@@](C)(O)[C@@H](OC(=O)N2CCC(N3CCCCC3)CC2)/C=C/[C@@H]1C [Compound 62] | 587 | 52.9 | 7.86 | 54.9 | −57.446 | −94.536 | 40.5 |  |  |  |  |  |  |  |  | 
C/C(=C\c1cc(F)cc(N2CCOCC2)c1)[C@H]1OC(=O)C[C@H](O)CC[C@H](C)[C@@H](OC(=O)N2CCN(C(C)C)CC2)/C=C/[C@@H]1C [Compound 24] | 192 | 30.7 | 5.19 | 10.9 | −67.459 | −89.895 | 8.29 |  |  |  |  |  |  |  |  | 
CNC(=O)[C@H]1CN(c2cc(F)cc(/C=C(\C)[C@H]3OC(=O)C[C@H](O)CC[C@H](C)[C@@H](OC(=O)N4CCN(C)CC4)/C=C/[C@@H]3C)c2)CCO1 [Compound 78] | 24.3 | 13.8 | 1.76 | 2.5 | −74.454 | −93.916 | 7.33 |  |  |  |  |  |  |  |  | 
C/C(=C\c1cccc(COC(=O)N2CCOCC2)c1)[C@H]1OC(=O)C[C@H](O)CC[C@H](C)[C@@H](OC(=O)N2CCN(C)CC2)/C=C/[C@@H]1C [Compound 257, [3-[(E)-2-[(2S,3S,4E,6R,7S,10R)-10-hydroxy-3,7-dimethyl-6-(4-methylpiperazine-1-carbonyl)oxy-12-oxo-1-oxacyclododec-4-en-2-yl]prop-1-enyl]phenyl]methyl morpholine-4-carboxylate] | > 25000 | 117 | 5.75 |  |  |  |  | 213.903 | −4.151 |  | −75.412 |  | 266 | 71.5 |  | 
C/C(=C\c1cccc2[nH]ncc12)[C@H]1OC(=O)C[C@H](O)CC[C@H](C)[C@@H](OC(=O)N2CCN(C)CC2)/C=C/[C@@H]1C [Compound 5] | 1500 | 94.7 | 6.61 | 59.7 | −38.293 | −17.631 | 47.2 |  |  |  |  |  |  |  |  | 
C/C(=C\c1cc(F)cc(N2CCOCC2)c1)[C@H]1OC(=O)C[C@H](O)CC[C@H](C)[C@@H](OC(=O)N(C)C2CN3CCC2CC3)/C=C/[C@@H]1C (some centres unmarked) [Compound 98] | 159 | 35.9 | 3.45 |  | −75.954 | −87.759 |  |  |  |  |  |  |  |  | 11.5 | 10.3
C/C(=C\c1cc(F)cc(N2CCN(C(=O)Cn3cccn3)CC2)c1)[C@H]1OC(=O)C[C@H](O)CC[C@H](C)[C@@H](OC(=O)N2CCN(C)CC2)/C=C/[C@@H]1C [Compound 122] | 18.8 | 14.3 | 5.5 | 2 | −85.128 | −70.057 | 2.1 |  |  |  |  |  |  |  |  | 
